# Publication PMC8843100, “Development of newly synthesised quinazolinone-based CDK2 inhibitors with potent efficacy against melanoma” (Journal of Enzyme Inhibition and Medicinal Chemistry, 2022)
# What was measured:
# Test in all cases: NCI-60 single dose screen, sulforhodamine B
# Type in all cases: cell-based, human
# [1] = system: A549/ATCC; conditions: Non-small cell lung cancer A549/ATCC; single dose 10^−5 M
# Outline: (§1)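 Day 0: seeding. Day 1: time-zero plates processed, test plates dosed at 10 µM. Day 3: fixation and sulforhodamine B staining, with inhibition derived versus untreated and time-zero wells.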
# [2] = system: SK-MEL-28; conditions: Melanoma SK-MEL-28; single dose 10^−5 M
# Outline: as §1
# [3] = system: MOLT-4; conditions: Leukaemia MOLT-4; single dose 10^−5 M
# Outline: as §1
# [4] = system: U251; conditions: CNS cancer U251; single dose 10^−5 M
# Outline: as §1
# [5] = system: HT29; conditions: Colon cancer HT29; single dose 10^−5 M
# Outline: as §1
# [6] = system: OVCAR-3; conditions: Ovarian cancer OVCAR-3; single dose 10^−5 M
# Outline: as §1
# [7] = system: SR; conditions: Leukaemia SR; single dose 10^−5 M
# Outline: as §1
# [8] = system: BT-549; conditions: Breast cancer BT-549; single dose 10^−5 M
# Outline: as §1
# [9] = system: SK-MEL-5; conditions: Melanoma SK-MEL-5; single dose 10^−5 M
# Outline: as §1
# [10] = system: NCI-H226; conditions: Non-small cell lung cancer NCI-H226; single dose 10^−5 M
# Outline: as §1
# [11] = system: T-47D; conditions: Breast cancer T-47D; single dose 10^−5 M
# Outline: as §1
# [12] = system: A498; conditions: Renal cancer A498; single dose 10^−5 M
# Outline: as §1
# [13] = system: NCI-H23; conditions: Non-small cell lung cancer NCI-H23; single dose 10^−5 M
# Outline: as §1
# [14] = system: PC-3; conditions: Prostate cancer PC-3; single dose 10^−5 M
# Outline: as §1
# [15] = system: ACHN; conditions: Renal cancer ACHN; single dose 10^−5 M
# Outline: as §1
# [16] = system: HCT-116; conditions: Colon cancer HCT-116; single dose 10^−5 M
# Outline: as §1
# [17] = system: NCI-H322M; conditions: Non-small cell lung cancer NCI-H322M; single dose 10^−5 M
# Outline: as §1
# [18] = system: MDA-MB-435; conditions: Melanoma MDA-MB-435; single dose 10^−5 M
# Outline: as §1
# [19] = system: HOP-92; conditions: Non-small cell lung cancer HOP-92; single dose 10^−5 M
# Outline: as §1
# [20] = system: HCC-2998; conditions: Colon cancer HCC-2998; single dose 10^−5 M
# Outline: as §1
# [21] = system: SF-268; conditions: CNS cancer SF-268; single dose 10^−5 M
# Outline: as §1
# [22] = system: UACC-257; conditions: Melanoma UACC-257; single dose 10^−5 M
# Outline: as §1
# [23] = system: OVCAR-8; conditions: Ovarian cancer OVCAR-8; single dose 10^−5 M
# Outline: as §1
# [24] = system: SNB-19; conditions: CNS cancer SNB-19; single dose 10^−5 M
# Outline: as §1
# [25] = system: MDA-MB-231/ATCC; conditions: Breast cancer MDA-MB-231/ATCC; single dose 10^−5 M
# Outline: as §1
# [26] = system: NCI-H460; conditions: Non-small cell lung cancer NCI-H460; single dose 10^−5 M
# Outline: as §1
# [27] = system: NCI/ADR-RES; conditions: Ovarian cancer NCI/ADR-RES; single dose 10^−5 M
# Outline: as §1
# [28] = system: EKVX; conditions: Non-small cell lung cancer EKVX; single dose 10^−5 M
# Outline: as §1
# [29] = system: COLO 205; conditions: Colon cancer COLO 205; single dose 10^−5 M
# Outline: as §1
# [30] = system: TK-10; conditions: Renal cancer TK-10; single dose 10^−5 M
# Outline: as §1
# [31] = system: SW-620; conditions: Colon cancer SW-620; single dose 10^−5 M
# Outline: as §1
SMILES,GI% at 10^−5 M [1],GI% at 10^−5 M [2],GI% at 10^−5 M [3],GI% at 10^−5 M [4],GI% at 10^−5 M [5],GI% at 10^−5 M [6],GI% at 10^−5 M [7],GI% at 10^−5 M [8],GI% at 10^−5 M [9],GI% at 10^−5 M [10],GI% at 10^−5 M [11],GI% at 10^−5 M [12],GI% at 10^−5 M [13],GI% at 10^−5 M [14],GI% at 10^−5 M [15],GI% at 10^−5 M [16],GI% at 10^−5 M [17],GI% at 10^−5 M [18],GI% at 10^−5 M [19],GI% at 10^−5 M [20],further results
"O=c1c2ccccc2nc(COc2ccccc2)n1NS(=O)(=O)c1ccccc1 [Compound 5a, N-(4-oxo-2-(phenoxymethyl)quinazolin-3(4H)-yl)benzenesulfonamide]",– (– means GI < 10%),– (– means GI < 10%),– (– means GI < 10%),– (– means GI < 10%),– (– means GI < 10%),– (– means GI < 10%),– (– means GI < 10%),– (– means GI < 10%),– (– means GI < 10%),– (– means GI < 10%),– (– means GI < 10%),– (– means GI < 10%),11.73%,– (– means GI < 10%),11.23%,– (– means GI < 10%),– (– means GI < 10%),– (– means GI < 10%),10.25%,– (– means GI < 10%),GI% at 10^−5 M [21]: – (– means GI < 10%); GI% at 10^−5 M [22]: – (– means GI < 10%); GI% at 10^−5 M [23]: – (– means GI < 10%); GI% at 10^−5 M [24]: – (– means GI < 10%); GI% at 10^−5 M [25]: 13.77%; GI% at 10^−5 M [26]: – (– means GI < 10%); GI% at 10^−5 M [27]: – (– means GI < 10%); GI% at 10^−5 M [28]: 15.21%; GI% at 10^−5 M [29]: – (– means GI < 10%); GI% at 10^−5 M [30]: – (– means GI < 10%); GI% at 10^−5 M [31]: – (– means GI < 10%)
"COc1ccc(N2CCN(CC(=O)Nn3c(COc4ccccc4)nc4ccccc4c3=O)CC2)cc1 [Compound 8c, 2–(4-(4-methoxyphenyl)piperazin-1-yl)-N-(4-oxo-2-(phenoxymethyl)quinazolin-3(4H)-yl)acetamide]",– (– means GI < 10%),– (– means GI < 10%),– (– means GI < 10%),– (– means GI < 10%),– (– means GI < 10%),– (– means GI < 10%),12.84%,– (– means GI < 10%),– (– means GI < 10%),– (– means GI < 10%),– (– means GI < 10%),15.04%,– (– means GI < 10%),14.02%,– (– means GI < 10%),– (– means GI < 10%),– (– means GI < 10%),– (– means GI < 10%),– (– means GI < 10%),– (– means GI < 10%),GI% at 10^−5 M [21]: – (– means GI < 10%); GI% at 10^−5 M [22]: – (– means GI < 10%); GI% at 10^−5 M [23]: – (– means GI < 10%); GI% at 10^−5 M [24]: – (– means GI < 10%); GI% at 10^−5 M [25]: – (– means GI < 10%); GI% at 10^−5 M [26]: – (– means GI < 10%); GI% at 10^−5 M [27]: – (– means GI < 10%); GI% at 10^−5 M [28]: – (– means GI < 10%); GI% at 10^−5 M [29]: – (– means GI < 10%); GI% at 10^−5 M [30]: – (– means GI < 10%); GI% at 10^−5 M [31]: – (– means GI < 10%)
